Where two headings read alike, the source gives them in different places. Non-standard residues stand in square brackets, D forms with d. Residues, ends and D or L forms follow the SMILES beside them. Hyp = O=C(O)[C@@H]1C[C@@H](O)CN1

The values that follow come from US20210228675A1, “HYPERTROPHIC SCAR INHIBITING COMPOSITION” (FUKUOKA UNIVERSITY, priority 2018, published 2021).

A short description of data set [1]: Transfer of Pro-Hyp in blood after administration (LC-MS/MS). The settings on record: for Tmax: female, C57 BL/6N, mouse, blood, mice without wound, read-out: time at which blood concentration of Pro-Hyp reached a peak (converted). The data set is classed as in vivo, C57 BL/6N mice. How it is done:
To C57 BL/6N mice (8 to 10 weeks of age, female) (N=4, per group) in which no wound site is formed, a physiological saline solution (500 nmol/200 μL) of the dipeptide consisting of the amino acid sequence of Pro-Hyp (which may be hereinafter referred to as simply “Pro-Hyp”) is administered intraperitoneally by injection (single administration) or a physiological saline solution (2500 nmol/200 μL) of Pro-Hyp was orally administered using a probe (single administration). After administration, blood was collected over time and Pro-Hyp occurred in blood was measured by LC-MS/MS method. The measurement conditions of LC-MS/MS method were as follows.
Collected blood was 2 times diluted in physiological saline and then centrifugation was performed under conditions at 20° C., 500×g, for 15 minutes. To the supernatant recovered after the centrifugation, 3 volumes of 100% ethanol were added. The supernatant to which 100% ethanol had been added was centrifuged at 20° C., 13000 rpm, for 15 minutes to perform deproteinization. Subsequently, the deproteinized sample was 10 times diluted in 50 mM ammonium bicarbonate and analyzed by LC-MS/MS. For the LC conditions, the analysis was conducted using CAPCELL PAK C1 UG120 10 mm×I.D. 2.0 mm (OSAKA SODA CO., LTD.) as a guard column and the column Hypersil Gold PFP 150 mm×I.D. 2.1 mm, 5 μm (manufactured by Thermo Fisher Scientific, Inc.). The analysis conditions were Mobile phase A MeOH, Mobile phase B a 2% formic acid aqueous solution containing 2 mM ammonium acetate, injection volume 5 μL, and gradient of Table 1 below.
The MS/MS was conducted using a tandem mass spectrometer (TSQ Vantage (manufactured by Thermo Fisher Scientific, Inc.)) under conditions of Method of ionization: Positive ESI, Spray voltage: 3000 V, Vaporizer: 300° C., Sheath gas: 30, Aux gas: 15, Capillary temperature: 250° C., MRM conditions: Parent Mass 229.1, Product Mass 70, Collision energy: 29 ev, S-Lens: 68.
Moreover, in the intraperitoneal administration, the Pro-Hyp concentration reached very high since it transferred in blood without gastrointestinal absorption. […] The C57 BL/6N mice in which no wound site was formed were used in this experiment, it is considered that a similar result is also obtained with Model-1 mice and Model-2 mice generated from the same line of mice.

For data set [2], the system named is granulation tissue in wound site of abdominal wall circular incision model (Model-2) mice. Nature of the data set: Formation of granulation tissue by administration of various polypeptides in Model-2 mice. The data set is classed as in vivo, C57 BL/6N mice. The settings on record: Day 7; i.p. once a day for 7 days, doses of Table 7; control sparse; FIG. 9.
Protocol: In this Example, aiming to examine granulation tissue formed in the peritoneum layer under tension, a novel model (Model-2) of granulation tissue formation that occurs between the peritoneum layers, which are under the minimal effect of the healing response from the skin layer and under direct influence of the tension of muscles, was generated in the following procedures. Female C57 BL/6N mice at 8 to 10 weeks of age were used. Anesthesia was introduced by administering 200 μL per animal (0.065 mg/g weight) of the anesthetic Somnopentyl (manufactured by Shering-Plough Corporation) to the peritoneal cavity. After the introduction of anesthesia, abdominal skin was cut open 1.5 cm along the midline using scissors for operations. […] Subsequently, the center part of the abdominal wall was picked up with round tip tweezers with an outside diameter of 3 mm, and the tissue in the central part of the abdominal wall was completely removed surgically in a circle with curved tip micro-operation scissors (Bottom panel in FIG. 1). After the incision, the positions 0.25 cm apart from the upper end and 0.25 cm apart from the bottom end of the incised skin (wound site) were sewed up to remove the tension of the skin. Subsequently, the skin was wrapped with Tegaderm and an underwear-shaped silicon protector was further put on to prevent the self-harm of the wound site. […]
[3] abbreviates: oral, single administration 2500 nmol/200 μL.

For the compound `O=C(O)[C@@H]1C[C@@H](O)CN1C(=O)[C@@H]1CCCN1` [Pro-Hyp] (H-Pro-[Hyp]-OH; N-terminus and C-terminus assumed), the Tmax was 15 min in data set [1] (ip, intraperitoneal, single administration 500 nmol/200 μL) and 15 min in data set [1] (setting [3]). Further, the “time at which blood concentration decreased to a baseline level” value in data set [1] (intraperitoneal, single administration 500 nmol/200 μL) amounted to 3 h; in data set [1] (setting [3]), 3 h.
Regarding Hyp-Gly, the “collagen fibers in granulation tissue, Masson trichrome stain” value in data set [2] was “the collagen fibers were dense and matured as the tissue”.
